In patent US20240408064A1, “RAS INHIBITORS, COMPOSITIONS AND METHODS OF USE THEREOF” (GENETOLEAD INC., priority 2021, published 2024):
Values joined by “and” are separate entries in the source; they are usually repeats but may differ in a detail not shown here. Equal entries are not always repeated. “Also recorded” adds a separate entry of the source.

Columns and labels:
HRas^G12V [1] = biological target: T1, HRas^G12V (Homo sapiens (Human), UniProt P01112, G12V); assay: 19F DLB (ligand-observed 19F NMR) score; assay type: binding; design: scale not given here
Procedure, shortened: (§1)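 Fragments were pooled at 240 μM each with 50 μM HRas G12V in 25 mM sodium phosphate pH 7.4, 150 mM NaCl, 5 mM MgCl2, 1 mM TCEP-d16, 10% D2O, and screened by 1H-decoupled 1D 19F NMR at 600 MHz (64 scans, 5 s relaxation delay). T2-CPMG data were collected with 1 ms echoes and eight delays from 1 to 800 ms.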

HRas^G12V [2] = biological target: T1, HRas^G12V; assay: 19F T2-CPMG NMR score; assay type: binding
Procedure, shortened: as §1

HRas^G12V [3] = biological target: T1, HRas^G12V; assay: Dissociation constant by NMR (1H/15N Fast-HSQC, 1H 1D protein-observed); assay type: binding; details: HRas^G12V; read-out: NMR Kd
Protocol: All NMR experiments were collected using 3 mm NMR tubes on a 600 MHz Bruker Avance III spectrometer equipped with a QCI helium cryoprobe and a SampleJet sample changer. The buffer used for NMR experiments was 25 mM sodium phosphate pH 7.4, 150 mM NaCl, 5 mM MgCl2, 1 mM TCEP-d16, 10% D2O. Data were processed using Bruker TopSpin.
(§2) ^1H/^15N Fast-HSQC experiments (Mori et al., Journal of Magnetic Resonance, Series B, Volume 108, Issue 1, July 1995, Pages 94-98) were recorded at a protein concentration of 50-100 μM.
(§3) Dissociation constants were obtained by monitoring changes in chemical shifts as a function of ligand concentration. The changes in chemical shifts (d) were calculated according to the following equation (Williamson, Progress in Nuclear Magnetic Resonance Spectroscopy, Volume 73, August 2013, Pages 1-16): d=√(1/2[δ_H^2+[…]]), Where δ are the changes in chemical shift in ppm for ^1H and ^15N and the correction factor (α) was set at 0.15.
(§4) ^1H 1D protein-observed experiments were recorded with 15-50 μM protein. The standard Bruker 1D ^1H sequence with excitation sculpting (zgesgp) was employed. A relaxation delay of 1 s was employed in order to use 256 scans while still keeping experimental time fairly short. Changes in protein chemical shift or peak intensity in the methyl region were monitored against compound concentration.

HRas^G12V [4] = biological target: T1, HRas^G12V; assay: Overall binding/activity in the various assays (NMR consensus binding)
Procedure, shortened: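 Fragments (240 µM each, pooled) screened against 50 µM HRas^G12V in 25 mM sodium phosphate pH 7.4, 150 mM NaCl, 5 mM MgCl2, 1 mM TCEP-d16 by 1H-decoupled 1D 19F NMR. Hits confirmed by ligand- and protein-observed 1D 1H, STD and T2-CPMG (aggregation check); consensus binding ranked, with 15N HSQC for sites and Kd.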

KRAS^G12D-GDP [5] = biological target: T2, KRAS^G12D-GDP (Homo sapiens (Human), UniProt P01116, G12D); assay: 19F DLB score, KRAS^G12D-GDP; assay type: binding; design: scale not given here
Protocol: (§5) Since the fragment library was curated using phosphate buffer, 25 mM sodium phosphate pH 7.4, 150 mM NaCl, 5 mM MgCl2, 1 mM TCEP-d16, 10% D2O Fresh TCEP was used for experiments. Screening was performed using ^1H-decoupled 1D ^19F experiment Bruker experiment (zgfhigqn.2) with 64 scans and a relaxation delay of 5 seconds. 50 μM HRas^G12V and 240 μM of each fragment in pools (mixtures) were used.
(§6) Hit confirmation was performed using the same ^19F experiment as the screen. Ligand-observed 1D ^1H, protein-observed 1D ^1H, ^1H T2-CPMG as well as Saturation Transfer Difference (STD) experiments were also run on the same samples. Ligand-observed 1D ^1H was run using the standard Bruker sequence with excitation sculpting (zgesgp) with a relaxation delay of 10 seconds and 16 scans per spectrum. Protein-observed 1D ^1H was performed using the same sequence with a relaxation delay of 1 second and 256 scans in order to increase the signal-to-noise of the protein resonances, while keeping the experimental time relatively short. The ^1H T2-CPMG experiment employed a modified version of the Bruker 1D ^1H zgesgp experiment with the addition of a CPMG pulse train after the first 90° excitation pulse. Total duration for each spin echo was fixed at 1 ms (τ=500 μs), while the number of echoes in the pulse train was varied according to the total time (T). The number of scans for each spectrum was 4 and eight delay times were run on each sample, ranging from 1 ms to 800 ms.
(§7) The activity of compounds of the invention regarding KRAS^G12D-GDP was measured in the same as in Example 80. The results obtained with the compounds in the various assays described above are depicted in Table 23.

KRAS^G12D-GDP [6] = biological target: T2, KRAS^G12D-GDP; assay: 19F T2-CPMG score, KRAS^G12D-GDP; assay type: binding
Protocol: as §5, §6, §7

KRAS^G12D-GDP [7] = biological target: T2, KRAS^G12D-GDP; assay: NMR Kd, KRAS^G12D-GDP; assay type: binding; details: 1H 1D protein-observed NMR, read-out: 1H 1D PO NMR Kd
Protocol: as §2, §3, §4, §7

KRAS^G12D-GDP [8] = biological target: T2, KRAS^G12D-GDP; assay: Overall activity in the various assays, KRAS^G12D-GDP; assay type: binding
Protocol: as §7

[9] = Solubility and free-state aggregation in the NMR screen; assay type: physicochemical; details: NMR buffer
From the text: Fragment screening has been performed using a library containing 461 fragments that has been designed using cheminformatics parameters such as Rule of Three and PAINS analysis. All fragments have been curated by ^1H and ^19F NMR for structure verification, purity, solubility in phosphate buffer and lack of apparent aggregation under these conditions. Fragments were pooled according to chemical compatibility resulting in 31 different pools to increase screening throughput. The library was provided by NMX Research in Solutions Inc.
Because of its power to probe the intrinsically weak interactions (Kd) between targets and low-molecular weight fragments, NMR fragment-based lead discovery (FBLD) is a very useful biophysical method in early stage drug discovery, especially for challenging target proteins; including those with shallow binding pockets. Since FBLD screens are performed using low-molecular weight compounds (fragments) with lower structural complexity, the same chemical space can be covered using a smaller number of drug-like fragments versus use of large libraries of higher-molecular weight lead-like compounds as in high throughput screening (HTS) campaigns. Therefore, FBLD has a much higher hit rate than HTS using only several hundred to several thousand compounds in comparison with approximately 1 million compounds for HTS. Also, the small size of the compounds screened in FBLD means a better chance to fully match the interactions with small or transient pockets within the target protein, where these less tractable pockets cannot be accessed with standard classical HTS methods. […] We expect this methodology to be more advantageous than classical HTS methods for expediting the time from hit to lead (H2L) and allows for rapid access to high quality leads with lower attrition rates in subsequent lead optimization (LO) campaigns toward pre-clinical candidate selection. FBLD screening by NMR involves a “consensus binding” approach where several distinct NMR experiments (DLB, STD, CPMG) are applied along with a free-state aggregation detection method (T2-CPMG) to rank the compounds for their affinity to the receptor (HRAS in this case) whilst simultaneously monitoring the solution behavior and critical quality attributes of each compound. The latter helps to eliminate artifact binders which are highly problematic. We performed a fluorine screen involving 461 compounds that were derived from a highly curated fragment library. Moreover, two-dimensional ^15N HSQC NMR was also used to validate ligand-binding sites on the target protein. In addition, we employed protein-detected biophysical measurements were employed to determine fragment binding affinities to the target protein (Kd) by HSQC NMR. From the results, we picked the most interesting hit were picked, FS-1255 that was identified based on consensus binding evidence from all NMR detection methods, and based the lack of free-state aggregation by T2-CPMG. We chose to prioritize on FS-1255 which was the most promising fragment hit.

wild type HRAS [10] = biological target: T3, wild type HRAS (Homo sapiens (Human), UniProt P01112); assay: 19F DLB score, wild type HRAS; assay type: binding
Protocol: as §5, §6
(§8) The activity of compounds of the invention regarding wild type HRAS was measured in the same as in Example 80. The results obtained with the compounds in the various assays described above are depicted in Table 2.

wild type HRAS [11] = biological target: T3, wild type HRAS; assay: 19F T2-CPMG score, wild type HRAS; assay type: binding
Protocol: as §5, §6, §8

wild type HRAS [12] = biological target: T3, wild type HRAS; assay: NMR Kd, wild type HRAS; assay type: binding
Protocol: as §2, §3, §4, §8

Structure (SMILES)	19F DLB Score (HRas^G12V [1])	19F T2-CPMG Score (HRas^G12V [2])	Activity ranking on HRas^G12V (in words) (HRas^G12V [4])	Kd (KRAS^G12D-GDP [7])	Activity ranking on KRAS^G12D-GDP (in words) (KRAS^G12D-GDP [8])	Solution behaviour in the NMR screen [9]	19F DLB Score (wild type HRAS [10])	19F T2-CPMG Score (wild type HRAS [11])	Kd (HRas^G12V [3])	19F DLB Score (KRAS^G12D-GDP [5])	19F T2-CPMG Score (KRAS^G12D-GDP [6])	Binding to HRas^G12V (in words) (HRas^G12V [4])	Kd (wild type HRAS [12])
CN(C)CC(=O)Nc1cccc(NC(=O)C(C#N)c2c[nH]c3cc(F)ccc23)c1 (centres unmarked) [Compound 11032]	4.73	<LLOQ	More active; also recorded: Most active				5.76	<LLOQ					
CN(C)Cc1[nH]c2cc(F)ccc2c1C(CC(=O)O)c1ccccc1F (centres unmarked) [Compound 11066]	0.91	−0.25	More active		most active								
CN(C)Cc1c[nH]c2cc(F)ccc12 [FS-1255, reference compound]	1.77 and 1.7 and 1.65	5.22							9.83 to 12 mM	1.51	3.62	weak binding affinity	6.07 mM

Now from value to compound, other results behind:

19F DLB Score (HRas^G12V [1])	19F T2-CPMG Score (HRas^G12V [2])	Activity ranking on HRas^G12V (in words) (HRas^G12V [4])	Kd (KRAS^G12D-GDP [7])	Activity ranking on KRAS^G12D-GDP (in words) (KRAS^G12D-GDP [8])	Solution behaviour in the NMR screen [9]	19F DLB Score (wild type HRAS [10])	19F T2-CPMG Score (wild type HRAS [11])	Structure (SMILES)	Kd (HRas^G12V [3])	19F DLB Score (KRAS^G12D-GDP [5])	19F T2-CPMG Score (KRAS^G12D-GDP [6])	Binding to HRas^G12V (in words) (HRas^G12V [4])	Kd (wild type HRAS [12])
1.64	12.69	More active	5.2 mM	most active				CC(=O)N1CCN(C(=O)Cc2c[nH]c3cc(F)ccc23)CC1 [Compound 10040]	4.03 to 9.5 mM	1.63	7.49		
					Aggregated			O=C(Cc1c[nH]c2cc(F)ccc12)Nc1cccc(F)c1 [Compound 10072]				low or no binding	
